Values joined by “and” are separate entries in the source; they are usually repeats but may differ in a detail not shown here. Identical values can stand only once.
Columns and labels:
[1] = system: eight mycobacterial strains
[2] = system: MAP strain Dominic (ATCC 43545); assay: radiometric 14CO2 BACTEC 460 growth culture, MAP Dominic; format: cell-based, Mycobacterium avium subspecies paratuberculosis
MAP strain UCF-4 = assay: radiometric 14CO2 BACTEC 460 growth culture, MAP UCF-4; format: cell-based, Mycobacterium avium subspecies paratuberculosis
MAP ATCC 19698 = assay: radiometric 14CO2 BACTEC 460 growth culture, MAP 19698; format: cell-based, Mycobacterium avium subspecies paratuberculosis
MAP 303 = assay: radiometric 14CO2 BACTEC 460 growth culture, MAP 303; format: cell-based, Mycobacterium avium subspecies paratuberculosis
M. avium ATCC 25291 = assay: radiometric 14CO2 BACTEC 460 growth culture, M. avium 25291; format: cell-based, M. avium subspecies avium
M. avium 101 = assay: radiometric 14CO2 BACTEC 460 growth culture, M. avium 101; format: cell-based, M. avium subspecies avium
single MAP strain = conditions: cited from earlier work
[3] = system: M. tuberculosis, M. Kansasii, M. scrofulaceum, M. avium and M. intracellulare; conditions: 5 mg/ml; cited from earlier work
[4] = system: bacteria (including M. phlei) and fungal growth; conditions: 100-250 μg/ml; cited from earlier work
[5] = system: Bacillus Callmette Guerin (BCG) M. bovis Karlson & Lessel (ATCC 19015); format: cell-based
M. avium = format: cell-based, M. avium subspecies avium; conditions: 4 μg/ml; value is a decrease
[6] = system: avirulent M. tb strain ATCC 25177; format: cell-based, M. tuberculosis
[7] = 1 μg/ml, first of the two values (two experiments)
[8] = 1 μg/ml, second of the two values (two experiments)
[9] = 4 μg/ml, first of the two values (two experiments)
[10] = 4 μg/ml, second of the two values (two experiments)
[11] = 16 μg/ml, first of the two values (two experiments)
[12] = 16 μg/ml, second of the two values (two experiments)
[13] = 64 μg/ml, first of the two values (two experiments)
[14] = 64 μg/ml, second of the two values (two experiments)

Row | SMILES | effect on growth (in words) [1] | percent change from control cGI (% ΔcGI / % −ΔcGI) [2, 7] [%] | percent change from control cGI (% ΔcGI / % −ΔcGI) [2, 8] [%] | percent change from control cGI (% ΔcGI / % −ΔcGI) [2, 9] [%] | percent change from control cGI (% ΔcGI / % −ΔcGI) [2, 10] [%] | percent change from control cGI (% ΔcGI / % −ΔcGI) [2, 11] [%] | percent change from control cGI (% ΔcGI / % −ΔcGI) [2, 12] [%] | percent change from control cGI (% ΔcGI / % −ΔcGI) [2, 13] [%] | percent change from control cGI (% ΔcGI / % −ΔcGI) [2, 14] [%] | percent change from control cGI (% ΔcGI / % −ΔcGI) (MAP strain UCF-4; 1 μg/ml) [%] | percent change from control cGI (% ΔcGI / % −ΔcGI) (MAP strain UCF-4; 4 μg/ml) [%] | percent change from control cGI (% ΔcGI / % −ΔcGI) (MAP strain UCF-4; 16 μg/ml) [%] | percent change from control cGI (% ΔcGI / % −ΔcGI) (MAP strain UCF-4; 64 μg/ml) [%] | percent change from control cGI (% ΔcGI / % −ΔcGI) (MAP ATCC 19698; 1 μg/ml) [%] | percent change from control cGI (% ΔcGI / % −ΔcGI) (MAP ATCC 19698; 4 μg/ml) [%] | percent change from control cGI (% ΔcGI / % −ΔcGI) (MAP ATCC 19698; 16 μg/ml) [%] | percent change from control cGI (% ΔcGI / % −ΔcGI) (MAP ATCC 19698; 64 μg/ml) [%] | percent change from control cGI (% ΔcGI / % −ΔcGI) (MAP 303; 1 μg/ml) [%] | percent change from control cGI (% ΔcGI / % −ΔcGI) (MAP 303; 4 μg/ml) [%] | percent change from control cGI (% ΔcGI / % −ΔcGI) (MAP 303; 16 μg/ml) [%] | further results
1 | CN1CCCC1c1cccnc1 (racemic) [(±) nicotine, nicotine] | neither enhancement nor an inhibitory effect |  |  |  |  |  |  |  |  |  |  |  |  |  |  |  |  |  |  |  | 
2 | CN1CCCC1c1cccnc1 (single isomer, unassigned; (+)) [(+) nicotine, nicotine] | neither enhancement nor an inhibitory effect |  |  |  |  |  |  |  |  |  |  |  |  |  |  |  |  |  |  |  | 
3 | CN1CCCC1c1cccnc1 (single isomer, unassigned; (-)) [(−) nicotine, nicotine] | neither enhancement nor an inhibitory effect |  |  |  |  |  |  |  |  |  |  |  |  |  |  |  |  |  |  |  | 
4 | CN1CCCC1c1cccnc1 (centres unmarked) [Nicotine, nicotine, reference compound] | no effect on growth | −2 | 0 | 29 | 30 | 1 | 6 | −12 | 7 | −10 | −10 | −6 | 9 | −20 | −20 | −21 | −11 | 7 | 8 | −22 | percent change from control cGI (% ΔcGI / % −ΔcGI) (MAP 303; 64 μg/ml): 7%; percent change from control cGI (% ΔcGI / % −ΔcGI) (M. avium ATCC 25291; 1 μg/ml): 106%; percent change from control cGI (% ΔcGI / % −ΔcGI) (M. avium ATCC 25291; 4 μg/ml): 63%; percent change from control cGI (% ΔcGI / % −ΔcGI) (M. avium ATCC 25291; 16 μg/ml): 143%; percent change from control cGI (% ΔcGI / % −ΔcGI) (M. avium ATCC 25291; 64 μg/ml): 112%; percent change from control cGI (% ΔcGI / % −ΔcGI) (M. avium 101; 1 μg/ml): 55%; percent change from control cGI (% ΔcGI / % −ΔcGI) (M. avium 101; 4 μg/ml): 0%; percent change from control cGI (% ΔcGI / % −ΔcGI) (M. avium 101; 16 μg/ml): 15%; percent change from control cGI (% ΔcGI / % −ΔcGI) (M. avium 101; 64 μg/ml): 5%; effect on MAP growth (in words) (single MAP strain; 2 μg/ml, BACTEC 460 with OADC supplementation): Bactericidal inhibition; effect on MAP growth in culture (in words) (single MAP strain; solitary MAP strain, pure nicotine): inhibited MAP growth; effect on growth (in words) [3]: Enhanced growth; effect on growth (in words) [4]: inhibition
5 | Nc1ccc(C(=O)O)c(O)c1 [PAS, para-amino salicylic acid, reference compound] |  |  |  |  |  |  |  |  |  |  |  |  |  |  |  |  |  |  |  |  | percent decrease from control cGI (%−ΔcGI) (MAP ATCC 19698; 64 μg/ml, value is a decrease): 80%; percent decrease from control cGI (%−ΔcGI) (MAP 303; 64 μg/ml, value is a decrease): 80%; percent decrease from control cGI (%−ΔcGI) ([5]; 4 μg/ml): ≥ 94%; percent decrease from control cGI (%−ΔcGI) (M. avium): ≥ 94%
6 | NC(=O)c1ccc[n+]([C@H]2O[C@H](COP(=O)([O-])OP(=O)(O)OC[C@H]3O[C@@H](n4cnc5c(N)ncnc54)[C@H](O)[C@@H]3O)[C@@H](O)[C@H]2O)c1 [α-NAD, α-nicotinamide adenine dinucleotide] |  | 25 | −16 | 79 | 35 | 104 | 78 | 135 | 115 | 18 | 35 | 65 | 81 | −16 | −6 | −17 | 13 | 8 | 9 | −8 | effect on growth (in words) (MAP ATCC 19698): little or no effect; effect on growth (in words) (MAP 303): little or no effect; percent change from control cGI (% ΔcGI / % −ΔcGI) (MAP 303; 64 μg/ml): −18%; percent change from control cGI (% ΔcGI / % −ΔcGI) (M. avium ATCC 25291; 1 μg/ml): −2%; percent change from control cGI (% ΔcGI / % −ΔcGI) (M. avium ATCC 25291; 4 μg/ml): 160%; percent change from control cGI (% ΔcGI / % −ΔcGI) (M. avium ATCC 25291; 16 μg/ml): 131%; percent change from control cGI (% ΔcGI / % −ΔcGI) (M. avium ATCC 25291; 64 μg/ml): 147%; effect on growth (in words) (M. avium 101): little or no effect; percent change from control cGI (% ΔcGI / % −ΔcGI) (M. avium 101; 1 μg/ml): 39%; percent change from control cGI (% ΔcGI / % −ΔcGI) (M. avium 101; 4 μg/ml): −15%; percent change from control cGI (% ΔcGI / % −ΔcGI) (M. avium 101; 16 μg/ml): −21%; percent change from control cGI (% ΔcGI / % −ΔcGI) (M. avium 101; 64 μg/ml): −14%; effect on growth (in words) ([5]; at the doses tested): little or no effect; effect on growth (in words) [6]: little or no effect; percent change from control cGI (% ΔcGI / % −ΔcGI) [6]: 2% and −6% and −1% and 0%
